Assay results published in USRE39591E1, “6-O-substituted ketolides having antibacterial activity” (Abbott Laboratories, priority 1996, dated 2007).

Tested on: up to 32 different microorganisms
Experiment: in vitro antibacterial activity (MIC), agar dilution on Brain Heart Infusion (BHI) agar with Steers replicator
Type: cell-based
Conditions: unit assumed
Procedure: Representative compounds of the present invention were assayed in vitro for antibacterial activity as follows: Twelve petri dishes containing successive aqueous dilutions of the test compound mixed with 10 mL of sterilized Brain Heart Infusion (BHI) agar (Difco 0148-01-5) were prepared. Each plate was inoculated with 1:100 (or 1:10 for slow-growing strains, such as Micrococcus and Streptococcus) dilutions of up to 32 different microorganisms, using a Steers replicator block. The inoculated plates were incubated at 35°-37° C. for 20 to 24 hours. In addition, a control plate, using BHI agar containing no test compound, was prepared and incubated at the beginning and end of each test.
An additional plate containing a compound having known susceptibility patterns for the organisms being tested and belonging to the same antibiotic class as the test compound was also prepared and incubated as a further control, as well as to provide test-to-test comparability. Erythromycin A was used for this purpose.
After incubation, each plate was visually inspected. The minimum inhibitory concentration (MIC) was defined as the lowest concentration of drug yielding no growth, a slight haze, or sparsely isolated colonies on the inoculum spot as compared to the growth control.

[1] = Candida albicans CCH 442 (code TT)
[2] = Enterococcus faecism ATCC 8043 (code II)
[3] = Escherichia coli DC-2 (code SS)
[4] = Escherichia coli JUHL (code QQ)
[5] = Haemophilis influenzae DILL AMP R (code WW)
[6] = Micrococcus luteus ATCC 4698 (code PP)
[7] = Micrococcus luteus ATCC 9341 (code OO)
[8] = Mycobacterium smegmatis ATCC 114 (code UU)
[9] = Nocardia Asteroides ATCC9970 (code VV)
[10] = Staphylococcus aureus 1775 (code GG)
[11] = Staphylococcus aureus A5177 (code BB)
[12] = Staphylococcus aureus A-5278 (code CC)
[13] = Staphylococcus aureus ATCC 6538P (code AA)
[14] = Staphylococcus aureus CMX 553 (code FF)
[15] = Staphylococcus aureus CMX 642A (code DD)
[16] = Staphylococcus aureus NCTC10649M (code EE)
[17] = Staphylococcus epidermidis 3519 (code HH)
[18] = Streptococcus Pneumonia 5649 (code ZZA)
[19] = Streptococcus Pneumonia 5979 (code ZZ)
[20] = Streptococcus Pneumonia ATCC6303 (code XX)
[21] = Streptococcus Pneumonia GYR 1171 (code YY)
[22] = Streptococcus agalactiae CMX 508 (code KK)
[23] = Streptococcus bovis A-5169 (code JJ)
[24] = Streptococcus pyogenes 930 (code MM)
[25] = Streptococcus pyogenes EES61 (code LL)
[26] = Streptococcus pyogenes PIU 2548 (code NN)

## CC[C@H]1OC(=O)[C@H](C)C(=O)[C@H](C)[C@@H](O[C@@H]2O[C@H](C)C[C@H](N(C)C)[C@H]2O)[C@@](C)(OCCCc2ccccc2)C[C@@H](C)C(=O)[C@H](C)[C@H]2OC(=O)O[C@@]21C [Example 73, Compound of Formula (IX): L is CO, T is O, R is —CH2CH2CH2-Phenyl]
[1]
  MIC: > 100 µg/mL
[2]
  MIC: 0.1 µg/mL
[3]
  MIC: > 100 µg/mL
[4]
  MIC: > 100 µg/mL
Escherichia coli SS (code RR)
  MIC: 3.1 µg/mL
[5]
  MIC: 16 µg/mL
[6]
  MIC: 0.2 µg/mL
[7]
  MIC: 0.1 µg/mL
[8]
  MIC: 0.78 µg/mL
[9]
  MIC: 0.39 µg/mL
[10]
  MIC: 100 µg/mL
[11]
  MIC: 0.39 µg/mL
[12]
  MIC: > 100 µg/mL
[13]
  MIC: 0.39 µg/mL
[14]
  MIC: 0.39 µg/mL
[15]
  MIC: 0.39 µg/mL
[16]
  MIC: 0.39 µg/mL
[17]
  MIC: 0.39 µg/mL
[18]
  MIC: 1 µg/mL
[19]
  MIC: 64 µg/mL
[20]
  MIC: 0.125 µg/mL
[21]
  MIC: 0.125 µg/mL
[22]
  MIC: 0.05 µg/mL
[23]
  MIC: 0.05 µg/mL
[24]
  MIC: 12.5 µg/mL
[25]
  MIC: 0.05 µg/mL
[26]
  MIC: 0.2 µg/mL

## C=CCO[C@@]1(C)C[C@@H](C)C(=O)[C@H](C)[C@H]2OC(=O)O[C@]2(C)[C@@H](CC)OC(=O)[C@H](C)C(=O)[C@H](C)[C@H]1O[C@@H]1O[C@H](C)C[C@H](N(C)C)[C@H]1O [Example 71, Compound of Formula (IX): L is CO, T is O, R is —CH2CH═CH2]
[1]
  MIC: > 100 µg/mL
[2]
  MIC: 1.56 µg/mL
[3]
  MIC: > 100 µg/mL
[4]
  MIC: > 100 µg/mL
Escherichia coli SS (code RR)
  MIC: 3.1 µg/mL
[5]
  MIC: 64 µg/mL
[6]
  MIC: 0.78 µg/mL
[8]
  MIC: 25 µg/mL
[9]
  MIC: 0.39 µg/mL
[10]
  MIC: > 100 µg/mL
[11]
  MIC: 0.39 µg/mL
[12]
  MIC: > 100 µg/mL
[13]
  MIC: 0.78 µg/mL
[14]
  MIC: 3.1 µg/mL
[15]
  MIC: 1.56 µg/mL
[16]
  MIC: 0.78 µg/mL
[17]
  MIC: 3.1 µg/mL
[18]
  MIC: 1 µg/mL
[19]
  MIC: > 128 µg/mL
[20]
  MIC: 0.25 µg/mL
[21]
  MIC: 0.25 µg/mL
[22]
  MIC: 0.2 µg/mL
[23]
  MIC: 0.2 µg/mL
[24]
  MIC: > 100 µg/mL
[25]
  MIC: 0.39 µg/mL
[26]
  MIC: 0.39 µg/mL

## CC[C@H]1OC(=O)[C@H](C)C(=O)[C@H](C)[C@@H](O[C@@H]2O[C@H](C)C[C@H](N(C)C)[C@H]2O)[C@@](C)(OCC#Cc2cnc3ccc([N+](=O)[O-])cc3c2)C[C@@H](C)C(=O)[C@H](C)[C@H]2NC(=O)O[C@@]21C [Example 248, Compound of Formula (IX): L is CO, T is NH, R is —CH2—C≡C-(6-nitro-3-quinolyl)]
Organism code AA
  MIC: 0.05 µg/mL
Organism code BB
  MIC: 0.05 µg/mL
Organism code CC
  MIC: > 100 µg/mL
Organism code DD
  MIC: 0.05 µg/mL
Organism code EE
  MIC: 0.05 µg/mL
Organism code FF
  MIC: 0.02 µg/mL
Organism code GG
  MIC: > 100 µg/mL
Organism code HH
  MIC: 0.05 µg/mL
Organism code II
  MIC: 0.02 µg/mL
Organism code JJ
  MIC: 0.02 µg/mL
Organism code KK
  MIC: ≤ 0.005 µg/mL
Organism code LL
  MIC: ≤ 0.005 µg/mL
Organism code MM
  MIC: 0.39 µg/mL
Organism code NN
  MIC: 0.1 µg/mL
Organism code OO
  MIC: 0.02 µg/mL
Organism code PP
  MIC: 0.1 µg/mL
Organism code QQ
  MIC: 50 µg/mL
Organism code RR
  MIC: 0.39 µg/mL
Organism code SS
  MIC: 50 µg/mL
Organism code TT
  MIC: > 100 µg/mL
Organism code UU
  MIC: 0.39 µg/mL
Organism code VV
  MIC: 0.02 µg/mL
Organism code WW
  MIC: 3 µg/mL
Organism code XX
  MIC: 0.03 µg/mL
Organism code YY
  MIC: 0.03 µg/mL
Organism code ZZ
  MIC: 4 µg/mL
Organism code ZZA
  MIC: 0.25 µg/mL

## CC[C@H]1OC(=O)[C@H](C)C(=O)[C@H](C)[C@@H](O[C@@H]2O[C@H](C)C[C@H](N(C)C)[C@H]2O)[C@@](C)(OCC=Cc2ccc(F)cc2)C[C@@H](C)C(=O)[C@H](C)[C@@H](O)[C@]1(C)O [Example 174, Compound of Formula (VIII): X is O, R is CH2—CH═CH-(4-fluorophenyl)]
[1]
  MIC: > 100 µg/mL
[2]
  MIC: 3.1 µg/mL
[3]
  MIC: > 100 µg/mL
[4]
  MIC: > 100 µg/mL
Escherichia coli SS (code RR)
  MIC: 12.5 µg/mL
[5]
  MIC: 128 µg/mL
[6]
  MIC: 0.78 µg/mL
[7]
  MIC: 0.39 µg/mL
[8]
  MIC: 3.1 µg/mL
[9]
  MIC: 0.78 µg/mL
[10]
  MIC: > 100 µg/mL
[11]
  MIC: 3.1 µg/mL
[12]
  MIC: > 100 µg/mL
[13]
  MIC: 3.1 µg/mL
[14]
  MIC: 3.1 µg/mL
[15]
  MIC: 3.1 µg/mL
[16]
  MIC: 3.1 µg/mL
[17]
  MIC: 3.1 µg/mL
[18]
  MIC: 2 µg/mL
[19]
  MIC: > 128 µg/mL
[20]
  MIC: 1 µg/mL
[21]
  MIC: 1 µg/mL
[22]
  MIC: 0.39 µg/mL
[23]
  MIC: 0.2 µg/mL
[24]
  MIC: > 100 µg/mL
[25]
  MIC: 0.39 µg/mL
[26]
  MIC: 1.56 µg/mL
